Biological target: T1, thrombin (Homo sapiens, UniProt P00734)
T1 construct: purchased Sigma
Assay: WaterLOGSY NMR screen of the functional genomics library against thrombin
Assay type: binding
Conditions: 133 μM compound, 7 μM thrombin, 100 mM phosphate buffer, pH6.5
Method: Several proteins with known functions were used for validating the screening library. The proteins were dissolved in 100 mM phosphate buffer, pH 6.5 to make stock solutions which were further diluted and mixed with the compound mixtures to make final concentration of 5-7 μM. The concentration of compounds was about 133 μM in the final solution. The ratio of compound to protein concentrations was about 20:1.
NMR experiments for validating the functional genomics library with proteins of known functions were conducted on a Bruker Avance 600 MHz spectrometer equipped with 5 mm FISEI flow probe and Gilson 215 liquid sample handler. Binding was detected using the WaterLOGSY experiment.
The functional genomics screening library was screened against thrombin obtained from Sigma, which is one of the test proteins used for validation of the library. One assay mixture contained 133 μM of N-alpha-dansyl-DL-tryptophan cyclohexylammonium salt (DPS) and 7 μM of thrombin in 100 mM phosphate buffer, pH6.5. This mixture also contained Benzyl (S)-(−)-2-(1-pyrrolidinylcarbonyl)-1-pyrrolidinecarboxylate (ZPR), Chymostatin A (CSA), Tetrahydrofolic acid (C2F), Haloperidol (THK). Referring to FIG. 17, the reference NMR spectrum of DPS is in the top panel while the WaterLOGSY spectrum of the mixture is shown in the bottom panel. The positive peak in the WaterLOGSY spectrum indicates binding of DPS to thrombin. […]

CN(C)c1cccc2c(S(=O)(=O)NC(Cc3c[nH]c4ccccc34)C(=O)O)cccc12.NC1CCCCC1 (racemic) [DPS, N-alpha-dansyl-DL-tryptophan cyclohexylammonium salt]
binding to thrombin (positive peak in WaterLOGSY spectrum): binding

Reference: patent publication US6764858B2, “Methods for creating a compound library” (Pharmacia & Upjohn Company, priority 1999, dated 2004)
